From ChEMBL document CHEMBL5465560, “Selectivity Literature for EUbOPEN Chemogenomic Library” (2024) come the findings set out here.

For assay [1], the target named is T1, Calcium/calmodulin-dependent protein kinase type IV (Homo sapiens) (UniProt Q16566).
T1 sequence (whole entry): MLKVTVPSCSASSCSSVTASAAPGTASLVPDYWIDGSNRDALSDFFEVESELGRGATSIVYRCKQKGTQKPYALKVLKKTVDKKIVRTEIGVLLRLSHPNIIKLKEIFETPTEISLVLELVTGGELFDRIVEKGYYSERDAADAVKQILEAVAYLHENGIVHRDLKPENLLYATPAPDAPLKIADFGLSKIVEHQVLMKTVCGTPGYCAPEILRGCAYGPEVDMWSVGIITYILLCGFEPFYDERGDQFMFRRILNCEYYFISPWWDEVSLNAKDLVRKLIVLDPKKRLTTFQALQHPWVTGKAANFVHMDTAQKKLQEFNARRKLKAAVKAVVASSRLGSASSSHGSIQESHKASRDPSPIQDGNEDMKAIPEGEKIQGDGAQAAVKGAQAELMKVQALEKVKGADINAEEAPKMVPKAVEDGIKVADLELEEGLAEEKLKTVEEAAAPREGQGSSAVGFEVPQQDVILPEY
The assay can be described thus: Selectivity interaction (SelectScreen profiling (Invitrogen)) EUB0000607a CAMK4. The settings on record: at 2 µM.

Assay [2] deals with Serine/threonine-protein kinase 38-like (Homo sapiens) (UniProt Q9Y2H1). The settings on record: at 10 µM.
For assay [3], the target named is Serine/threonine-protein kinase 38 (Homo sapiens) (UniProt Q15208). The assay can be described thus: Selectivity interaction (ActivX KiNativ screen (ex vivo kinase selectivity in human PBMCs)) EUB0001619a STK38. In kind it is cell-based. The settings on record: PBMC, at 1 µM.
The target of assay [4] is Interleukin-1 receptor-associated kinase 1 (Homo sapiens) (UniProt P51617). The assay can be described thus: Selectivity interaction (ActivX KiNativ screen (kinase selectivity in THP-1 cell lysates)) EUB0000639a IRAK1. In kind it is subcellular. Particulars: lysate.
Assay [5] has as its target T2, Aurora kinase A (Homo sapiens) (UniProt O14965).
T2 sequence (whole entry): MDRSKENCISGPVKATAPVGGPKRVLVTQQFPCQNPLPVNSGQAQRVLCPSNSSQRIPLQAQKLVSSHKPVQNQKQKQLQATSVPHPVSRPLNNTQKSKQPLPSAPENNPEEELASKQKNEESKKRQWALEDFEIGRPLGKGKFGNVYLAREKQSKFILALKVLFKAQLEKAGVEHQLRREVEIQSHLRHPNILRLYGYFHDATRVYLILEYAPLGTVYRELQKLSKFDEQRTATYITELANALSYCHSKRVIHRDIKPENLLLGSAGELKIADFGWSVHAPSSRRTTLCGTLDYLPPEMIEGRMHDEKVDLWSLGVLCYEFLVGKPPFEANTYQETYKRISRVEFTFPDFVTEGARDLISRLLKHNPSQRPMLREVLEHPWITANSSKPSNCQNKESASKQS
The experiment in a line: Selectivity interaction (ActivX KiNativ screen (kinase selectivity in THP-1 cell lysates)) EUB0000639a STK6. In kind it is subcellular. Particulars: lysate, at 1 µM.

Assay [6] deals with T3, Ephrin type-B receptor 2 (Homo sapiens) (UniProt P29323).
T3 sequence (whole entry): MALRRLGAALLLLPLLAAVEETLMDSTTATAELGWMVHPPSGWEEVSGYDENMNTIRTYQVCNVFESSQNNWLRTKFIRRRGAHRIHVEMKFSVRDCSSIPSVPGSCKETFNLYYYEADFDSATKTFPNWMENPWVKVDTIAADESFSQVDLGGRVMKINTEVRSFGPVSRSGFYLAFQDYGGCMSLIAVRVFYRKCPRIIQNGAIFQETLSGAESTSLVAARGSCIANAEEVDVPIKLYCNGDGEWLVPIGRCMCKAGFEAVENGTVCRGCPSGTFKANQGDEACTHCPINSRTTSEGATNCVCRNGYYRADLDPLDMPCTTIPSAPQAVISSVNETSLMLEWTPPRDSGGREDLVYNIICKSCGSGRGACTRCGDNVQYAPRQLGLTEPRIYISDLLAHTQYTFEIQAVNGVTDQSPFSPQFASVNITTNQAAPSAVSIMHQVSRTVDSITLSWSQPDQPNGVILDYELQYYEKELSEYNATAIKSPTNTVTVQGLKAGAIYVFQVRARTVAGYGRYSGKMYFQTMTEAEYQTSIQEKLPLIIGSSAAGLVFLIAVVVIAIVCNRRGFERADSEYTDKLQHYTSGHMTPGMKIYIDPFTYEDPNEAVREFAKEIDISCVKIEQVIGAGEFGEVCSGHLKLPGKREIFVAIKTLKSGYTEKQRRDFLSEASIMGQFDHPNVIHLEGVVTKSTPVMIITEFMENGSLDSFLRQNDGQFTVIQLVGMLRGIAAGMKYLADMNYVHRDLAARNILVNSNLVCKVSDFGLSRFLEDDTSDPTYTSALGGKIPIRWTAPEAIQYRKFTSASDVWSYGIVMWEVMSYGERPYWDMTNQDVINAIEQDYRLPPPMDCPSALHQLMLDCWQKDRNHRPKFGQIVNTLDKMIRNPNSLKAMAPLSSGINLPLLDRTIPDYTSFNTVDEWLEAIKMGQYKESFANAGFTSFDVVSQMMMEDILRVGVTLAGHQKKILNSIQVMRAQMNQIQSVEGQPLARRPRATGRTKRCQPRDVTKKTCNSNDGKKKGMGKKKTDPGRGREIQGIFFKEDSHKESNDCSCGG
The assay can be described thus: Selectivity interaction (Millipore kinase profiler) EUB0000124b EPHB2. The settings on record: at 10 µM.

The target in assay [7] is Tyrosine-protein kinase Lck (Homo sapiens, UniProt P06239).
Assay [8] concerns the target Tyrosine-protein kinase receptor UFO (Homo sapiens) (UniProt P30530). The experiment in a line: Selectivity interaction (KinomeScan (DiscoverX)) EUB0000092b AXL. The settings on record: at 10 µM.
Assay [9] deals with Dual specificity mitogen-activated protein kinase kinase 2 (Homo sapiens) (UniProt P36507). The experiment in a line: Selectivity interaction (KinomeScan (DiscoverX)) EUB0001550a MAP2K2. Particulars: at 1 µM.
The target of assay [10] is Serine/threonine-protein kinase 26 (Homo sapiens, UniProt Q9P289). The experiment in a line: Selectivity interaction (KinomeScan (DiscoverX)) EUB0000618a STK26. The settings on record: at 10 µM.
Sequence of Serine/threonine-protein kinase 26 (Q9P289 2-416 limits assumed): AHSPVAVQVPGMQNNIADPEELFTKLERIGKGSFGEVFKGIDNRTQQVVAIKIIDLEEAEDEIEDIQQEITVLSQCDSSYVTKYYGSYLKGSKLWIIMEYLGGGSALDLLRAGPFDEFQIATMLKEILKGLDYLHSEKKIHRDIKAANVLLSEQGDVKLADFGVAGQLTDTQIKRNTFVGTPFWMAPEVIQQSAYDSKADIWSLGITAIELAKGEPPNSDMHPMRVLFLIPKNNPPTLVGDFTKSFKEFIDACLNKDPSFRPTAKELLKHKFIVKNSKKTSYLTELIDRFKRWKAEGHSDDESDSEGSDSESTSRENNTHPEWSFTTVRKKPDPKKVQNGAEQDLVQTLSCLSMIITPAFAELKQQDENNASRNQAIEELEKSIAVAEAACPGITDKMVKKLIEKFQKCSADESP

Sequence of Interleukin-1 receptor-associated kinase 1 (Homo sapiens) (P51617 whole entry, looked up): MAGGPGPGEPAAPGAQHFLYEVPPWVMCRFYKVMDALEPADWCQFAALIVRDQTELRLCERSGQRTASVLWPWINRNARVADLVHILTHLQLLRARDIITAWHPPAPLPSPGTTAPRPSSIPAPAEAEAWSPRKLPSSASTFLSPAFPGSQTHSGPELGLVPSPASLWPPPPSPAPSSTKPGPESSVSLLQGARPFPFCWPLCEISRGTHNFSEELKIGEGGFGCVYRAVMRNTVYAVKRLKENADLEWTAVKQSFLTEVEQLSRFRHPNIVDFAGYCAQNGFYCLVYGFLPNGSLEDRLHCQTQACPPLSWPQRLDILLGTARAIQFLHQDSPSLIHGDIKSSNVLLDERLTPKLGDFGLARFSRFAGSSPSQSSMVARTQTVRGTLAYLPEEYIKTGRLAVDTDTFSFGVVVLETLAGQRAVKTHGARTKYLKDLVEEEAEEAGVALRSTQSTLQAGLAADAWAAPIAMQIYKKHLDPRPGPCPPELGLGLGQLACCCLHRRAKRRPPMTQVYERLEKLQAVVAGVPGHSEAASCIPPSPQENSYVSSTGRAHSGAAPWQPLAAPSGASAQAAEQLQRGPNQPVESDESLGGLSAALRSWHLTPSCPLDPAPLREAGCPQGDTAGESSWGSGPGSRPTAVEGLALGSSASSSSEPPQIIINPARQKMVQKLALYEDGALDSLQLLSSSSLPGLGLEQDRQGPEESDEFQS
Sequence of Tyrosine-protein kinase receptor UFO (Homo sapiens) (P30530 whole entry): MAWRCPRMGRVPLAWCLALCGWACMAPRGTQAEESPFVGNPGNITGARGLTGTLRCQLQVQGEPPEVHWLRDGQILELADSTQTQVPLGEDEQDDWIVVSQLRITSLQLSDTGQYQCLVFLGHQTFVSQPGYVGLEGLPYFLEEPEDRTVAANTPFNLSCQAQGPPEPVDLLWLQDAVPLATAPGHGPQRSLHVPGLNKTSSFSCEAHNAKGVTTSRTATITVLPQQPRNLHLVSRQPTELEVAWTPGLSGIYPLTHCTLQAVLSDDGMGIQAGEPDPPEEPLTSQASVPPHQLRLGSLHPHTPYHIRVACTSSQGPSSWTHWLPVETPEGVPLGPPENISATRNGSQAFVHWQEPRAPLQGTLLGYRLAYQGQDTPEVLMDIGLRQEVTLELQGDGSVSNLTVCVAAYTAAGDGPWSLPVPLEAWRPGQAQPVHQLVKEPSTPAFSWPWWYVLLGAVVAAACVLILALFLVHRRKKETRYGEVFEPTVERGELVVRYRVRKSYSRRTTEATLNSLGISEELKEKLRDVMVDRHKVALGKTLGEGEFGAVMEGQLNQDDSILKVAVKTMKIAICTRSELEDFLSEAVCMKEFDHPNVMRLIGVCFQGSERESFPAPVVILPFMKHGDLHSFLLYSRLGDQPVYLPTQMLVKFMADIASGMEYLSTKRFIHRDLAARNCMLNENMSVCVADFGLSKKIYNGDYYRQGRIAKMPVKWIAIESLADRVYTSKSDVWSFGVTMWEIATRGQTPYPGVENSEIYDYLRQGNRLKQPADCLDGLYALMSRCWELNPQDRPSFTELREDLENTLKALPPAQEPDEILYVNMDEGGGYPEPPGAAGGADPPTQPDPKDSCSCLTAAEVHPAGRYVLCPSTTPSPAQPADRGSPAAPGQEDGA
Sequence of Tyrosine-protein kinase Lck (P06239 whole entry): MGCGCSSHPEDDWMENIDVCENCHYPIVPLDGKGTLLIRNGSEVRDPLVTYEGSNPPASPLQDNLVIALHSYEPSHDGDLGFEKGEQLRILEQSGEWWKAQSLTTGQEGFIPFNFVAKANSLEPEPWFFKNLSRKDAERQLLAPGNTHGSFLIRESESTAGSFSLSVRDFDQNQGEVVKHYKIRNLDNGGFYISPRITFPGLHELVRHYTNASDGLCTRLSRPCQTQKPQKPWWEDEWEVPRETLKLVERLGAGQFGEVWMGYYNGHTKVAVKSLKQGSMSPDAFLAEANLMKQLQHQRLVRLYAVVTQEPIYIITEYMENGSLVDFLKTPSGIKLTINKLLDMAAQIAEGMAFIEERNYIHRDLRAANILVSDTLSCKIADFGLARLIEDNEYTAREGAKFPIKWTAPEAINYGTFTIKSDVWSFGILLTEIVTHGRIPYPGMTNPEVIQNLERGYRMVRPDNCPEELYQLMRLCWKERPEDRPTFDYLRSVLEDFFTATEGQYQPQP
Sequence of Dual specificity mitogen-activated protein kinase kinase 2 (Homo sapiens) (P36507 whole entry): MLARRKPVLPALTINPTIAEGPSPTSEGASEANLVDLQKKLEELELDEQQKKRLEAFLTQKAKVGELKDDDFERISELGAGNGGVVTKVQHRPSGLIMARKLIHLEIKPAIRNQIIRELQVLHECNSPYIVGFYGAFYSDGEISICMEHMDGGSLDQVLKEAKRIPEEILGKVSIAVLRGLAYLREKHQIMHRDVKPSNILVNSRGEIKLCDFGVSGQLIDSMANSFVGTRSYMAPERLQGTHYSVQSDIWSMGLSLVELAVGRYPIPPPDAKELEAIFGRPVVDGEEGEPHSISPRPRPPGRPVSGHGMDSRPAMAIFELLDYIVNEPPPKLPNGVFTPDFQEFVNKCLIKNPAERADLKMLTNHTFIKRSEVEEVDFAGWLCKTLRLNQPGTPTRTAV
Sequence of Serine/threonine-protein kinase 38-like (Homo sapiens) (Q9Y2H1 2-464 limits assumed): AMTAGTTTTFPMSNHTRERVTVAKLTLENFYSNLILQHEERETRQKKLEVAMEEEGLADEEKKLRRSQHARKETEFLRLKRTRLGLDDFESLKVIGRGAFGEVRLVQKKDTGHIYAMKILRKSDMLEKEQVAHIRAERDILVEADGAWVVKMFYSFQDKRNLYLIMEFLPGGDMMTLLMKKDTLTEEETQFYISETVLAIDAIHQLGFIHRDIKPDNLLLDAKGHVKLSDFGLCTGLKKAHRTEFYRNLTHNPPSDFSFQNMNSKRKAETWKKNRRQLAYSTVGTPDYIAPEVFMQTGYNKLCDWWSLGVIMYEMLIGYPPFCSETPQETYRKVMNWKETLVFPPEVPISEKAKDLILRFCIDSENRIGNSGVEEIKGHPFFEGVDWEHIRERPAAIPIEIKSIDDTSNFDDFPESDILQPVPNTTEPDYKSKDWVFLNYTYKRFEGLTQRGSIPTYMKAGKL
Sequence of Serine/threonine-protein kinase 38 (Homo sapiens) (Q15208 2-465 limits assumed): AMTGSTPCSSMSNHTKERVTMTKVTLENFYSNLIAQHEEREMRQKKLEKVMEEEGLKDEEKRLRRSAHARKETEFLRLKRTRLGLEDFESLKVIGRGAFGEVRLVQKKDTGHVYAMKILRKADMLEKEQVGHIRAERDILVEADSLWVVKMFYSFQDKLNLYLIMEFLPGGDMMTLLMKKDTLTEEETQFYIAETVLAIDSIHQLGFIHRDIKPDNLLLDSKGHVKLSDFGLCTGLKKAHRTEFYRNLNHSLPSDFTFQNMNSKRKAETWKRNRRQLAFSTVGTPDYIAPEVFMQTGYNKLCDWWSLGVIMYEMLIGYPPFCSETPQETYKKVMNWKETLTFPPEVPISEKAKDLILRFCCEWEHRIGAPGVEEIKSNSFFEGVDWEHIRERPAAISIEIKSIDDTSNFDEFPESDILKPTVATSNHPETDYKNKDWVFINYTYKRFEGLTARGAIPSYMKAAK

Regarding `CNC(=O)Nc1ccc(-c2nc(N3CC4CCC(C3)O4)c3cnn(C4CCC5(CC4)OCCO5)c3n2)cc1`, the % of inhibition in assay [1] is -1%.

For `Cc1cc([C@@H](C)Nc2ccccc2C(=O)O)c2nc(N3CCOCC3)cc(=O)n2c1` [AZD-6482], in assay [2], the % of control was 94%.

Turning to `N#Cc1cccc(-c2c[nH]c3ncnc(N4CCOCC4)c23)c1`, the % of inhibition in assay [3] turned out to be 4%.

As for `CC[C@@H]1[C@H](F)C(=O)N[C@@H]1COc1nccc2cc(C(N)=O)c(OC)cc12` [ZIMLOVISERTIB], the % of inhibition came out at 2.3% in [4] (at 0.01 µM); 8.5% in assay [4] (at 0.04 µM); 2.2% in assay [4] (at 0.2 µM); 19.8% in assay [4] (at 1 µM); 60.7% in assay [4] (at 5 µM); 20% in assay [5].

With `CC(=O)Nc1cccc(-n2c(=O)n(C3CC3)c(=O)c3c(Nc4ccc(I)cc4F)n(C)c(=O)c(C)c32)c1`, the % of control in assay [6] was found to be 107%.

With `CCc1cccc(CC)c1NC(=O)c1nn(C)c2c1CCc1cnc(Nc3ccc(C(=O)NC4CCN(C)CC4)cc3OC(F)(F)F)nc1-2`, the concentration for half-maximal inhibition (IC50) in [7] was greater than 10 µM.

For the compound `CCC(=O)N1CCN(c2ccc(-n3c(=O)ccc4cnc5ccc(-c6cnc7ccccc7c6)cc5c43)cc2C(F)(F)F)CC1`, the % of control in assay [8] turned out to be 46%.

With `CN(C)CC#Cc1ccc2[nH]c3c(c2c1)-c1nc(N)ncc1CCC3`, the % of control in [9] was 9.6%.

Compound `O[C@H]1CC[C@H](Nc2ncc3nc(Nc4c(F)cc(F)cc4F)n([C@H]4CCOC4)c3n2)CC1` gave a % of control in [10] of 82%.

Usually IC50 stands for the midpoint of a concentration-inhibition curve.
